Laboratory results reported in US20090143279A1 (priority 2007, published 2009).
Read-outs that look alike come from different tables or passages of the source.

Columns and labels:
[1] = system: reactive oxygen species; type: cell-based, mouse
[2] = system: nuOXPHOS transcripts; type: cell-based, mouse
[3] = system: cellular dehydrogenase activity
[4] = system: OXPHOS gene expression; type: cell-based, mouse
[5] = system: cytochrome c; type: cell-based, mouse
[6] = system: mtOXPHOS transcripts; type: cell-based, mouse
[7] = system: C2C12 myotubes
[8] = system: mitochondrial membrane potential; type: cell-based, mouse
[9] = Table 4, C2C12 myotubes, 48 h, composite Z-score
[10] = composite Z-score vs DMSO, Conc 20 μM
[11] = Table 4, C2C12 myotubes, 48 h, JC-1, composite Z-score
[12] = normalized composite Z-score vs mock-treated (DMSO) wells, Conc 20 μM
[13] = composite Z-score vs DMSO wells, Conc 20 μM
[14] = Conc 20 μM, normalized score vs mock-treated (DMSO) wells

## COc1cc2c(cc1OC)[C@@H]1C(=O)c3ccc4c(c3O[C@@H]1CO2)CC(C(C)C)O4 (stereo partly drawn) [beta-dihydrorotenone, reference compound]
[1]; [9]
  ROS: 0.122
[1]; [10]
  ROS: 0.122
[2]; [10]
  nucOX: −0.828
[3]; [9]
  MTT: −2.771
[3]; [10]
  MTT: −2.771
[4]; [10]
  GE-HTS: −0.818
[5]; [10]
  cyt c: −0.408
[6]; [10]
  mitoOX: −0.695
[7]; [9]
  Viability: −0.184
[7]; [10]
  Viability: −0.184
[8]; [11]
  ΔΨm: 1.079
[8]; [10]
  ΔΨm: 1.079

## COc1cc2c(cc1OC)C1C(=O)c3c(cc4c(c3O)C=CC(C)(C)O4)OC1CO2 (stereo not drawn) [beta-toxicarol, reference compound]
[1]; [9]
  ROS: −0.188
[1]; [12]
  ROS: −0.188
[2]; [12]
  nucOX: −1.773
[3]; [9]
  MTT: −1.498
[3]; [12]
  MTT: −1.498
[4]; [12]
  GE-HTS: −1.508
[5]; [12]
  cyt c: −0.239
[6]; [12]
  mitoOX: −0.627
[7]; [9]
  Viability: 0.672
[7]; [12]
  Viability: 0.672
[8]; [11]
  ΔΨm: 0.899
[8]; [12]
  ΔΨm: 0.899

## CNCCc1ccccn1 [betahistine]
[1]; [13]
  ROS: −0.176
[2]; [13]
  nucOX: −0.008
[3]; [13]
  MTT: 0.861
[4]; [13]
  GE-HTS: −0.284
[5]
  cyt c: 0.296
[5]; [13]
  cyt c: 0.386
[6]; [13]
  mitoOX: −0.718
[7]; [13]
  Viability: 1.068
[8]; [13]
  ΔΨm: 0.125

## C[N+](C)(C)CC(=O)O [betaine]
[1]
  ROS: −0.348
[2]
  nucOX: 0.354
[3]
  MTT: 1.036
[4]
  GE-HTS: 0.478
[5]
  cyt c: −0.998
[6]
  mitoOX: 0.604
[7]
  Viability: 0.548
[8]
  ΔΨm: 0.345

## C[C@H]1C[C@H]2[C@@H]3CCC4=CC(=O)C=C[C@]4(C)[C@@]3(F)[C@@H](O)C[C@]2(C)[C@@]1(O)C(=O)CO [betamethasone]
[1]
  ROS (composite Z-score): 0.541
[2]
  nucOX (composite Z-score): 0.633
[3]
  MTT (composite Z-score): −1.063
[4]
  GE-HTS (composite Z-score): 0.740
[5]
  cyt c (composite Z-score): 0.130
[6]
  mitoOX (composite Z-score): 0.853
[7]
  Viability (composite Z-score): −0.984
[8]
  ΔΨm (composite Z-score): 0.849

## C=C(C)[C@@H]1CC[C@]2(C(=O)O)CC[C@]3(C)[C@H](CC[C@@H]4[C@@]5(C)CC[C@H](O)C(C)(C)[C@@H]5CC[C@]43C)[C@@H]12 [betulinic acid]
[1]; [10]
  ROS: 0.202
[2]; [10]
  nucOX: 0.069
[3]; [10]
  MTT: −2.381
[4]; [10]
  GE-HTS: 0.145
[5]; [10]
  cyt c: 0.481
[6]; [10]
  mitoOX: 0.259
[7]; [10]
  Viability: 0.850
[8]; [10]
  ΔΨm: −1.220

## C=CC1=C(C)/C(=C/c2[nH]c(Cc3[nH]c(/C=C4\NC(=O)C(C)=C4C=C)c(C)c3CCC(=O)O)c(CCC(=O)O)c2C)NC1=O [bilirubin]
[1]; [14]
  ROS (composite Z-score): 0.249
[2]; [14]
  nucOX (composite Z-score): 0.250
[3]; [14]
  MTT (composite Z-score): −1.287
[4]; [14]
  GE-HTS (composite Z-score): 0.312
[5]; [14]
  cyt c (composite Z-score): 1.004
[6]; [14]
  mitoOX (composite Z-score): 0.427
[7]; [14]
  Viability (composite Z-score): −0.649
[8]; [14]
  ΔΨm (composite Z-score): −1.837

## COc1ccc(-c2coc3cc(O)cc(O)c3c2=O)cc1 [biochanin A]
[1]; [14]
  ROS (composite Z-score): 0.623
[2]; [14]
  nucOX (composite Z-score): −0.459
[3]; [14]
  MTT (composite Z-score): −0.325
[4]; [14]
  GE-HTS (composite Z-score): −0.324
[5]; [14]
  cyt c (composite Z-score): −0.416
[6]; [14]
  mitoOX (composite Z-score): −0.042
[7]; [14]
  Viability (composite Z-score): 0.987
[8]; [14]
  ΔΨm (composite Z-score): 0.033

## OC(CCN1CCCCC1)(c1ccccc1)C1CC2C=CC1C2 (centres unmarked) [biperiden]
[1]
  ROS: 2.725
[2]
  nucOX: −0.496
[3]
  MTT: −0.886
[4]
  GE-HTS: −0.817
[5]
  cyt c: 0.053
[6]
  mitoOX: −1.312
[7]
  Viability: 0.740
[8]
  ΔΨm: −0.517

## CC(C)=CCC[C@](C)(O)C1CC=C(C)CC1 (some centres unmarked) [bisabolol]
[1]; [10]
  ROS: 0.061
[2]; [10]
  nucOX: −0.983
[3]; [10]
  MTT: 0.031
[4]; [10]
  GE-HTS: −0.963
[5]; [10]
  cyt c: 0.738
[6]; [10]
  mitoOX: −0.690
[7]; [10]
  Viability: 0.300
[8]; [10]
  ΔΨm: −0.234
